According to the NIST ThermoML archive (doi:10.1021/je900093h):

Assay: molar heat capacity at saturation pressure
Settings: Vacuum adiabatic calorimetry

CCCCCCCCCC(=O)OCC [ethyl decanoate]
Settings | molar heat capacity [J/K/mol]
204.7 K, Crystal | 251.8
205.19 K, Crystal | 252
205.24 K, Crystal | 252.1
205.57 K, Crystal | 252.3
206.25 K, Crystal | 253.2
206.66 K, Crystal | 253.6
207.14 K, Crystal | 254
207.19 K, Crystal | 254
207.62 K, Crystal | 254.3
208.2 K, Crystal | 255.2
208.63 K, Crystal | 255.4
209.09 K, Crystal | 255.7
209.14 K, Crystal | 255.7
209.67 K, Crystal | 256.4
210.15 K, Crystal | 257
210.59 K, Crystal | 257.3
211.04 K, Crystal | 257.6
211.09 K, Crystal | 257.8
211.71 K, Crystal | 258.4
212.1 K, Crystal | 259
212.56 K, Crystal | 259.1
212.98 K, Crystal | 259.7
213.04 K, Crystal | 259.7
213.75 K, Crystal | 260.3
214.05 K, Crystal | 261
214.52 K, Crystal | 261.2
214.93 K, Crystal | 261.7
214.99 K, Crystal | 261.6
215.78 K, Crystal | 262.5
215.99 K, Crystal | 263.2
216.49 K, Crystal | 263.3
216.87 K, Crystal | 263.9
216.93 K, Crystal | 263.7
217.81 K, Crystal | 264.8
217.93 K, Crystal | 265.3
218.46 K, Crystal | 265.4
218.81 K, Crystal | 266.1
218.87 K, Crystal | 265.9
219.84 K, Crystal | 267.1
219.87 K, Crystal | 267.5
220.42 K, Crystal | 267.6
220.75 K, Crystal | 268.4
220.81 K, Crystal | 268.3
221.82 K, Crystal | 269.7
221.86 K, Crystal | 269.6
222.39 K, Crystal | 270
222.68 K, Crystal | 270.8
222.75 K, Crystal | 270.5
223.76 K, Crystal | 272.3
223.88 K, Crystal | 272.1
224.36 K, Crystal | 272.5
224.61 K, Crystal | 273.3
224.69 K, Crystal | 272.9
225.69 K, Crystal | 274.9
225.89 K, Crystal | 274.9
226.33 K, Crystal | 275.1
226.54 K, Crystal | 276.1
226.62 K, Crystal | 275.6
227.62 K, Crystal | 277.6
227.9 K, Crystal | 277.8
228.29 K, Crystal | 277.8
228.46 K, Crystal | 278.4
228.54 K, Crystal | 278.3
229.55 K, Crystal | 280.1
229.89 K, Crystal | 280.6
230.26 K, Crystal | 280.8
230.47 K, Crystal | 280.9
232.23 K, Crystal | 284
232.58 K, Crystal | 284.3
234.19 K, Crystal | 287.3
234.97 K, Crystal | 289
236.16 K, Crystal | 291.1
237.29 K, Crystal | 294.1
238.11 K, Crystal | 296.8
239.59 K, Crystal | 301
240.07 K, Crystal | 303
241.85 K, Crystal | 310.4
244.07 K, Crystal | 325.4
246.21 K, Crystal | 353.6
254.4 K, Liquid | 386.7
255.37 K, Liquid | 387
256.65 K, Liquid | 387.2
257.1 K, Liquid | 387.4
257.94 K, Liquid | 387.5
258.76 K, Liquid | 387.7
259.18 K, Liquid | 387.9
260.12 K, Liquid | 388.2
260.59 K, Liquid | 388.3
261.71 K, Liquid | 388.7
262.29 K, Liquid | 388.9
262.56 K, Liquid | 388.9
264.24 K, Liquid | 389.3
264.47 K, Liquid | 389.5
264.54 K, Liquid | 389.4
266.52 K, Liquid | 390
266.65 K, Liquid | 390.1
266.77 K, Liquid | 390.1
268.5 K, Liquid | 390.8
268.83 K, Liquid | 390.8
